A short description of test [1]: Inhibition of F-actin depolymerization.
Test [2] can be described thus: Cytotoxicity against human HeLaS3 cells. The test is classed as functional, cell-based. The conditions noted are these: HeLa S3.

Here are results for five compounds from ChEMBL document CHEMBL1153350, “Synthesis of actin-depolymerizing compounds” (Bioorg Med Chem Lett, 2009).

Bounds are passed on as bounds.

Regarding `CC(=O)O[C@@H]([C@@H](C)[C@@H](CC[C@H](C)[C@H](O)[C@H](C)[C@@H](O)CCO)OC(=O)[C@H](C)N(C)C)[C@H](C)/C=C/N(C)C=O`, the IC50 (as a rule, the concentration that gives 50% inhibition) in test [1] is 7.9 µM; in test [2], more than 10 µg/mL.

Regarding `C/C=C/[C@@H](OC(=O)[C@H](C)N(C)C)[C@H](C)[C@H](OC(C)=O)[C@H](C)/C=C/N(C)C=O`, the IC50 in test [1] is 210 µM; in test [2], more than 10 µg/mL.

For `CC(=O)O[C@@H]([C@@H](C)[C@@H](/C=C/CCc1ccccc1)OC(=O)[C@H](C)N(C)C)[C@H](C)/C=C/N(C)C=O`, the IC50 was 47 µM in test [1] and more than 10 µg/mL in test [2].

As to `CC(=O)O[C@@H]([C@@H](C)[C@@H](/C=C/c1ccccc1)OC(=O)[C@H](C)N(C)C)[C@H](C)/C=C/N(C)C=O`, the 50% inhibitory concentration (IC50) in test [1] was 85 µM; in test [2], more than 10 µg/mL.

Consider `CC(=O)O[C@@H]([C@@H](C)[C@@H](/C=C/CCCCc1ccccc1)OC(=O)[C@H](C)N(C)C)[C@H](C)/C=C/N(C)C=O`, for which the IC50 in test [1] is 21 µM; in test [2], more than 10 µg/mL.
